From ChEMBL document CHEMBL1759948, “Use of the NEO strategy (Nucleophilic addition/Epoxide Opening) for the synthesis of a new C-galactoside ester analogue of KRN 7000” (2011)

Key:
Assay type in all cases: functional
Mus musculus [1] = organism: Mus musculus; experiment: Induction of IL-4 production in BALB/c mouse after 6 hrs by ELISA
Mus musculus [2] = organism: Mus musculus; experiment: Ratio of induction of IFN-gamma production to induction of IL-4 production in BALB/c mouse after 6 hrs
Mus musculus [3] = organism: Mus musculus; experiment: Induction of IFN-gamma production in BALB/c mouse after 6 hrs by ELISA

Structure (SMILES)	Activity (Mus musculus [1]) [pg/mL]	Ratio (Mus musculus [2])	Activity (Mus musculus [3]) [pg/mL]
CCCCCCCCCCCCCCCCCCCCCCCCCC(=O)O[C@H](CCCCCCCCCCCCCC)[C@@H](O)[C@@H](O)CC[C@H]1O[C@H](CO)[C@H](O)[C@H](O)[C@H]1O	83	1.37	90
CCCCCCCCCCCCCCCCCCCCCCCCCC(=O)N[C@@H](CO[C@H]1O[C@H](CO)[C@H](O)[C@H](O)[C@H]1O)[C@H](O)[C@H](O)CCCCCCCCCCCCCC [RGI-7000]	1450	8.35	12145
